The target in one test is T1, Renin in human plasma (Homo sapiens, UniProt P00797).
T1 construct: purchased Proteos; host or cells: added to human EDTA-collected plasma
T1 sequence (P00797 67-406): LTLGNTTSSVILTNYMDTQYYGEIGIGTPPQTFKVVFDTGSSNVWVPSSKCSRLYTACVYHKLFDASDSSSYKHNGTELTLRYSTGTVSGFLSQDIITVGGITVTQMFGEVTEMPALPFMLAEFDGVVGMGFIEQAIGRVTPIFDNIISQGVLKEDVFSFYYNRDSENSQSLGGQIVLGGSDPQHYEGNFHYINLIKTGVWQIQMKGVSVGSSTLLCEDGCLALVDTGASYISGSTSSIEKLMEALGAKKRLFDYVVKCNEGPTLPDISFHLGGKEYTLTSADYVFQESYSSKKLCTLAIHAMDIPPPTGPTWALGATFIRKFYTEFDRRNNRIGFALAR
The test can be described thus: Inhibition of renin in human plasma. The format is biochemical. As to conditions: human EDTA plasma, recombinant renin added at 1 nM, 6 μM substrate, 37° C., 1 hour. The procedure: Human EDTA-collected plasma is rapidly thawed in warm water and centrifuged at 2900 g for 15 minutes at 4° C. The supernatant is collected and recombinant renin (Proteos) is added at a final concentration of 1 nM. The plasma is transferred to a Costar black 384 well plate (#3573). Renin inhibitors are added from a 17.5 fold concentrated DMSO solution and pre-incubated at 37° C. for 10 minutes. The internally-quench fluorescent peptide QX1520™-Lys-His-Pro-Phe-His-Leu-Val-Ile-His-Lys (5-FAM) (Anaspec) is diluted in 3M Tris pH 7.2, 200 mM EDTA and added to the plasma. The final concentrations are: 6 μM substrate, 342 mM Tris, 23 mM EDTA. The plate is incubated at 37° C. for 1 hour. The plate is read in a SpectraMax Gemini EM reader set at an excitation wavelength of 490 nm and an emission wavelength of 520 nm at times 0 and 1 hour. Background fluorescence at t=0 is subtracted from the measurement at t=1 hour. Inhibitory activity of the compounds is expressed as IC50.

In the next test the target is T2, Human recombinant renin (Homo sapiens, UniProt P00797).
T2 construct: purchased Proteos
T2 sequence (P00797 67-406): T1 sequence (P00797 67-406)
The test can be described thus: Inhibition of human recombinant renin (buffer assay). The format is biochemical. As to conditions: buffer: 50 mM MOPS pH 7.4, 100 pM renin, 6 μM fluorescent peptide, 37° C., 3 hours. How it is done:
Human recombinant renin (Proteos) in 50 mM MOPS pH 7.4, 100 mM NaCl, 0.002% Tween 20 at a final concentration of 100 pM is incubated with inhibitors from a 50 fold concentrated DMSO solution and 6 μM of an internally-quench fluorescent peptide: DNP-Lys-His-Pro-Phe-His-Leu-Val-Ile-His-D,L-Amp (SEQ ID NO: 1); Paschalidou K. et al., Biochem J, 2004, 382, 1031). The reactions take place in a Costar 384 well black plate (#3573) at 37° C. for 3 hours. Fluorescence is measured at times 0 and 3 hours with a SpectraMax Gemini EM reader set at an excitation wavelength of 328 nm and at an emission wavelength of 388 nm. Background fluorescence at t=0 is subtracted from the measurement at t=3 hours. Inhibitory activity of the compounds is expressed as IC50.

For `CC(=O)NCCc1ccccc1-c1ccc([C@@H]2CNCC[C@]23OCc2cc(F)c(F)cc23)c(C)c1` (racemic) [Example 4, rac-N-(2-{4′-[(1R,3′S)-5,6-Difluoro-3H-spiro[2-benzofuran-1,4′-piperidin]-3′-yl]-3′-methyl-2-biphenylyl}ethyl)acetamide], the half-inhibitory concentration (IC50) at Renin in human plasma amounted to 1.4 nM; at Human recombinant renin it was 0.2 nM.
On the same counts, the results for `COCCCc1ccccc1-c1ccc([C@@H]2CNCC[C@]23OCc2cn(C)c(=O)cc23)c(C)c1` (racemic) [Example 5, rac-(1R,3′S)-3′-[2′-(3-Methoxypropyl)-3-methyl-4-biphenylyl]-5-methyl-3,5-dihydro-6H-spiro[furo[3,4-c]pyridine-1,4′-piperidin]-6-one] are 18 nM and 1.6 nM.
On the same counts, the results for `Cc1cc(-c2ccccc2CCNC(=O)CO)ccc1[C@H]1CNCC[C@@]12OC(=O)c1cc(F)c(F)cc12` [Example 11, N-(2-{4′-[(1R,3′S)-5,6-Difluoro-3-oxo-3H-spiro[2-benzofuran-1,4′-piperidin]-3′-yl]-3′-methyl-2-biphenylyl}ethyl)-2-hydroxyacetamide] are 0.82 nM and 0.66 nM.
As for `CC(=O)NCCc1ccccc1-c1onc([C@H]2CNCC[C@@]23OCc2cc(F)c(F)cc23)c1Br` [Example 13, N-[2-(2-(4-Bromo-3-[(1R,3′R)-5,6-difluoro-3H-spiro[2-benzofuran-1,4′-piperidin]-3′-yl]-5-isoxazolyl)phenyl)ethyl]acetamide], the IC50 on Renin in human plasma is 1 nM; at Human recombinant renin, 0.26 nM.

For the origin of these results see patent publication US20120202837A1, “SPIROCYCLIC PIPERIDINE DERIVATIVES USEFUL AS RENIN INHIBITORS” (priority 2009, published 2012).
